What was measured:
in vitro [1] = settings: for fraction unbound at 4 h, 5 μM: pH 7.4
Method: Method 1. Aliquots of 50 μL loading matrix containing test compound (2 μM final incubation concentration) or control compound in triplicate were transferred to a Sample Collection Plate. The samples were matched with opposite blank buffer to obtain a final volume of 100 μL, with a volume ratio of matrix: Dialysis Buffer of 1:1 (v:v) in each well. Stop solution (200 ng/ml tolbutamide and 200 ng/mL labetalol in ACN) was added to these TO samples of test compound and control compound. The plate was sealed and shaken at 800 rpm for 10 min. An aliquot of 100 μL of the loading matrix containing test compound or control compound was transferred to the donor side of each dialysis well in triplicate and 100 μL of the Dialysis Buffer was loaded to the receiver side of the well. Then the plate was rotated at approximately 100 rpm in a humidified incubator with 5% CO2 at 37±1° C. for 4 hours. At the end of the dialysis, aliquots of 50 μL samples from the buffer side and matrix side of the dialysis device were taken into new 96-well plates (Sample Collection Plates). An equal volume of opposite blank matrix (buffer or matrix) in each sample was added to reach a final volume of 100 μL, with volume ratio of matrix: Dialysis Buffer of 1:1 (v:v) in each well. All samples were further processed by protein precipitation before LC-MS/MS analysis.
Method 2. Aliquots (200 μL) of positive controls and test compounds at 5 μM (triplicates) were separately added to the plasma chamber and […] of phosphate buffered saline (pH 7.4) was added to the buffer chamber of the inserts. After sealing the rapid equilibrium dialysis (RED) device with an adhesive film, dialysis was performed in an incubator at 37° C. with shaking at 100 RPM for 4 hours. Aliquots (50 μL) of warfarin and test compounds were added to four 0.5 mL micro fuse tubes. Two aliquots were frozen immediately (0-minute sample). The other two aliquots were incubated at 37° C. for 4 hours along with the RED device. Following dialysis, an aliquot of 50 μL was removed from each well (both plasma and buffer side) and diluted with an equal volume of opposite matrix (dialyzed with the other matrix) to nullify the matrix effect. Similarly, 50 μL of buffer was added to recovery and stability samples. An aliquot of 100 μL was used for LC-MS/MS analysis following protein precipitation with ACN containing internal standard.

Rat plasma stability = assay type: in vitro ADME; settings: 37° C.
Method: The results were used to confirm that the plasma protein binding results were not confounded by poor plasma stability.
Method 1. […] Plasma was centrifuged at 4,000 rpm for 5 min and any clots were remove.
Method 2. […]

in vitro [2] = test: in vitro; parameters: fraction unbound at 4 h: dose or concentration left out as unconfirmed; settings: rat, brain homogenate
Method: Various putative peripheral 5-HT2A receptor antagonists were tested for binding to rat brain homogenate via equilibrium dialysis, with the results summarized in Table 7.
Method 1. Rat brain homogenate was thawed in a water bath at room temperature and then incubated at 37° C. for 10 min before use. Aliquots of 50 μL of loading matrix containing test compound (2 μM final incubation concentration) or control compound in triplicate were transferred to a Sample Collection Plate. The samples were matched with opposite blank buffer to obtain a final volume of 100 μL with a volume ratio of matrix: Dialysis Buffer of 1:1 (v:v) in each well. The stop solution (200 ng/mL tolbutamide and 200 ng/ml labetalol in ACN) was immediately added to these T0 samples of test compound and control compound. The plate was sealed and shaken at 800 rpm for 10 min. T0 samples were stored at 2-8° C. pending further processing along with other post-dialysis samples. An aliquot of 100 μL of the loading matrix containing test compound or control compound was transferred to the donor side of each dialysis well in triplicate and 100 μL of the Dialysis Buffer was loaded to the receiver side of the well. Then the plate was rotated at approximately 100 rpm in a humidified incubator with 5% CO2 at 37±1° C. for 4 hours. At the end of the dialysis. aliquots of 50 μL from the buffer side and matrix side of the dialysis device were taken into new 96-well plates (Sample Collection Plates). An equal volume of opposite blank matrix (buffer or matrix) in each sample was added to reach a final volume of 100 μL, with a volume ratio of matrix: Dialysis Buffer of 1:1 (v:v) in each well. All samples were further processed by protein precipitation before LC-MS/MS analysis.
Method 2. Aliquots (200 μL) of test compounds and positive controls at […] in rat brain homogenate (triplicates) were added to the rapid equilibrium dialysis (RED) chamber of dialysis inserts. A 350 μL aliquot of dialysis buffer was added to the buffer chamber of the inserts. After sealing the RED device with an adhesive film, dialysis was conducted at 37° C. with shaking at 100 RPM for 4 hours. Following dialysis, an aliquot of 50 μL was removed from each well (brain homogenate and buffer) and diluted with an equal volume of opposite matrix to nullify the matrix effect. Similarly, buffer was added to recovery and stability samples. An aliquot of 100 μL was used for LC-MS/MS analysis following protein precipitation with ACN containing internal standard.

[3] = Metabolic stability in rat liver microsomes; assay type: in vitro ADME; settings: for half-life at 1 μM / microsomal CLint at 1 μM: both sexes, rat, microsomes, pH 7.4
Method: RLM Stability. Pooled RLM from adult male and female donors (Xenotech R1000) were used. Microsomal incubations were carried out in multi-well plates. Liver microsomal incubation medium consisted of PBS (100 mM, pH 7.4), MgCl2 (1 mM), and NADPH (1 mM), with 0.50 mg of liver microsomal protein per mL. Control incubations were performed by replacing the NADPH-cofactor system with PBS. Test compounds (1 μM, final solvent concentration 1.0%) were incubated with microsomes at 37° C. with constant shaking. Six time points over 60 minutes were analyzed, with 60 μL aliquots of the reaction mixture being drawn at each time point. The reaction aliquots were stopped by adding 180 μL of cold (4° C.) acetonitrile containing 200 ng/mL tolbutamide and 200 ng/ml labetalol as internal standards (IS), followed by shaking for 10 minutes, and then protein sedimentation by centrifugation at 4,000 rpm for 20 minutes at 4° C. Supernatant samples (80 μL) were diluted with water (240 μL) and analyzed for parent compound remaining using a fit-for-purpose liquid chromatography-tandem mass spectrometry (LC-MS/MS) method.
Data Analysis. The elimination constant (kel), half-life (t1/2), and intrinsic clearance (CLint) were determined in a plot of […] versus time, using linear regression analysis.

[4] = RLM, 1 μM, 0.50 mg protein per mL, NADPH

Row | Compound | fraction unbound at 4 h, 2 μM (in vitro [1]; rat, plasma) | % Remaining (120 minutes), rat plasma (Rat plasma stability; Method 1: 2 μM) | fraction unbound at 4 h, 2 μM (in vitro [2]) | Metabolic stability in RLM [3] | half-life at 1 μM [3, 4] | microsomal CLint at 1 μM [3, 4] | fraction unbound at 4 h, 5 μM (in vitro [1]; rat, plasma) | % Remaining (120 minutes), rat plasma (Rat plasma stability; Method 2: 5 μM) | fraction unbound at 4 h (in vitro [2]) | Mean % bound (rat plasma protein binding) (in vitro [1]; Method 2: RED, 5 μM, 4 hours, 37° C.) | Clint [3, 4] | t1/2 [3, 4]
1 | CC(CNC(=N)CNc1ccccc1)Oc1cccc(Cl)c1.O=CO (centres unmarked) [BW501C67, N-(2-(3-chlorophenoxy)propyl)-2-(phenylamino)acetimidamide formate] | 0.107 | 100.7% | 0.003 | poor metabolic stability | 2.1 min | 658 µL/min/mg |  |  |  |  |  | 
2 | CC(C)COc1ccc(CNC(=O)N(Cc2ccc(F)cc2)C2CCN(C(=O)CC[C@H](N)C(=O)O)CC2)cc1 [Compound 14a, (S)-2-amino-5-(4-(1-(4-fluorobenzyl)-3-(4-isobutoxybenzyl)ureido)piperidin-1-yl)-5-oxopentanoic acid] |  |  |  | highly stable | > 145 min | < 9.6 µL/min/mg | 0.06 | 97% | 0.078 |  |  | 
3 | COc1cccc(CCc2ccccc2OCC(CN(C)C)OC(=O)CCC(=O)O)c1 (centres unmarked) [sarpogrelate] |  |  |  |  |  |  | 0.002 | 67% | 0.054 |  |  | 
4 | COc1cccc(C(=O)Nc2ccc(OCCN3CCOCC3)c(-c3ccnn3C)c2)c1 [temanogrel] |  |  |  |  |  |  | 0.091 | 95% | 0.108 |  |  | 
5 | COc1cccc(OC(C)CNC(=N)Cc2cccc(C)c2)c1.O=C(O)C(F)(F)F (centres unmarked) [xylamidine, N-(2-(3-methoxyphenoxy)propyl)-2-(m-tolyl) acetimidamide trifluoroacetate] |  |  |  | poor metabolic stability |  |  |  | 94% |  | 65.6% | 709.1 µL/min/mg | 2.0 min

From patent US20240390301A1, “COMBINATIONS OF PERIPHERAL 5-HT2A RECEPTOR ANTAGONISTS AND CENTRAL 5-HT2A RECEPTOR AGONISTS” (priority 2021, published 2024)
